Reference: ChEMBL document CHEMBL5584225, “Discovery of an efficacious KDM5B PROTAC degrader GT-653 up-regulating IFN response genes in prostate cancer” (Eur J Med Chem, 2024)
Active and inactive are the calls of the source. No cut-off for these calls is given here.

Columns and labels:
[1] = biological target: T1, Protein cereblon/Lysine-specific demethylase 5B (Homo sapiens) (UniProt Q96SW2+Q9UGL1); assay: PROTAC activity at CRBN/KDM5B in human 22Rv1 cells assessed as induction of KDM5B degradation at 10 uM incubated for 12 hrs by Western blot analysis relative to control; format: cell-based
T1 sequence (Q96SW2 whole entry, looked up): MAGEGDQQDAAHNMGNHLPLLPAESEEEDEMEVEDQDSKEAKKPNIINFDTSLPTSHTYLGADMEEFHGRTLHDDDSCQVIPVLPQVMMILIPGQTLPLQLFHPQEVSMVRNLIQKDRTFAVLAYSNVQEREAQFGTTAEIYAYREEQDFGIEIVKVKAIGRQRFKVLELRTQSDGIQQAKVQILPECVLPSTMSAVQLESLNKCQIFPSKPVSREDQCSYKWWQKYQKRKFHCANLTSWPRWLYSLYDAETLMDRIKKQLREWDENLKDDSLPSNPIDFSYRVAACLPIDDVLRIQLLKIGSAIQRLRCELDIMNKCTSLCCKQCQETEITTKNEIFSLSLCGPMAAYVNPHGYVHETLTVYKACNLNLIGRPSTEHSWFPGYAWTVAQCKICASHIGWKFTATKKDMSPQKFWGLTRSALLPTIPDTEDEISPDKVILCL
T1 sequence (Q9UGL1 whole entry, looked up): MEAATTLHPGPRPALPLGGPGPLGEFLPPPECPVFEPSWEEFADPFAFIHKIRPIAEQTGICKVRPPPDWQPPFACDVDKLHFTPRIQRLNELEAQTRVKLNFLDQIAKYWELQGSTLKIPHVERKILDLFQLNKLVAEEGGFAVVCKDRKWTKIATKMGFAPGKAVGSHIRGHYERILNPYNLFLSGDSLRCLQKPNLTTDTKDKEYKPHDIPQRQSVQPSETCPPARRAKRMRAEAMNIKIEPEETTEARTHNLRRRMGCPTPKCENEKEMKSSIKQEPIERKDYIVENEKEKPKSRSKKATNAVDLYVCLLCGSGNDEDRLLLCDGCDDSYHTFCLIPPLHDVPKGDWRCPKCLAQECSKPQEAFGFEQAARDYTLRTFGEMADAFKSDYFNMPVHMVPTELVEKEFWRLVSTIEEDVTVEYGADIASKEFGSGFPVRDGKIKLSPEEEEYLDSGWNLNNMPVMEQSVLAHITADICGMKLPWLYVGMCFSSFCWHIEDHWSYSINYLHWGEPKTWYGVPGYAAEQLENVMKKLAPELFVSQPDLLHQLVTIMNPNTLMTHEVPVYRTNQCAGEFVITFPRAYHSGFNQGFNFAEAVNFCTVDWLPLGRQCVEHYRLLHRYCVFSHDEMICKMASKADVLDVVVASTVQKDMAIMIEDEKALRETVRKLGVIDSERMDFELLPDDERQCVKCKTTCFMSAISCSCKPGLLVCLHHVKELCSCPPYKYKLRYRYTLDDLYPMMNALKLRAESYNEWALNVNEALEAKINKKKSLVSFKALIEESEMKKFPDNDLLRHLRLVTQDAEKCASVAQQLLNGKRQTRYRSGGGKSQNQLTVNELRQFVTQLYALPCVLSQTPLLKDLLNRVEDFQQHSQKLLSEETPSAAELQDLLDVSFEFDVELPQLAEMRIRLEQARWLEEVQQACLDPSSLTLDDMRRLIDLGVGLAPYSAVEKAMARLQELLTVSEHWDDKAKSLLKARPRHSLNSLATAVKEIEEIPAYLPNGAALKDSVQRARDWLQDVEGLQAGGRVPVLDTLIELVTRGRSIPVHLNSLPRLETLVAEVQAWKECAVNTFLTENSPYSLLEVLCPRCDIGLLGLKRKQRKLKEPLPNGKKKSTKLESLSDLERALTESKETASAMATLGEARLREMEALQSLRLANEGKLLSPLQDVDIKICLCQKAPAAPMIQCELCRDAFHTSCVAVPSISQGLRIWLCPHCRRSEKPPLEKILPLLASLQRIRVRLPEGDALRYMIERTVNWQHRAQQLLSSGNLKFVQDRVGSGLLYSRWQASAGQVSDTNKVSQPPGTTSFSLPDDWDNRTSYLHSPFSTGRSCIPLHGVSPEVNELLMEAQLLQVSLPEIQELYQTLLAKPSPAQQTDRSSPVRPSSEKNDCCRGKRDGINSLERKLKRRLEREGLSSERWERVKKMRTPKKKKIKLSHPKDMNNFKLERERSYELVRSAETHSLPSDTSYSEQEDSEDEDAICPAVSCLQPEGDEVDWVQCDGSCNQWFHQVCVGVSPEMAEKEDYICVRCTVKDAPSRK

[2] = biological target: Lysine-specific demethylase 5B (Homo sapiens) (UniProt Q9UGL1); assay: Inhibition of KDM5B in human 22Rv1 cells assessed as upregulation of H3K4me3 level at 20 uM incubated for 24 hrs by Western blot analysis; format: cell-based
Sequence of Lysine-specific demethylase 5B (Homo sapiens) (Q9UGL1 whole entry): as the sequence (Q9UGL1 whole entry, looked up) above

[3] = biological target: T1, Protein cereblon/Lysine-specific demethylase 5B (Homo sapiens); assay: PROTAC activity at CRBN/KDM5B in human 22Rv1 cells assessed as induction of KDM5B degradation at 5 uM in presence of thalidomide measured after 24 hrs by Western blot analysis; format: cell-based
[4] = biological target: Lysine-specific demethylase 5B (Homo sapiens) (UniProt Q9UGL1); assay: Inhibition of KDM5B in human 22Rv1 cells assessed as upregulation of IFI35 mRNA expression at 20 uM incubated for 24 hrs by RT-qPCR analysis; format: cell-based
CWR22R [5] = assay: Upregulation of IFI35 mRNA expression in KDM5B-deficient human 22Rv1 cells harboring reintroduced KDM5B L685W at 20 uM incubated for 24 hrs by RT-qPCR analysis; format: functional, cell-based
[6] = biological target: Lysine-specific demethylase 5B (Homo sapiens) (UniProt Q9UGL1); assay: Inhibition of KDM5B non-catalytic activity in human 22Rv1 cells assessed as inhibition of KDM5B binding to SETDB1 by measuring reduction in H3K9me3 level at 20 uM incubated for 24 hrs by Co-IP analysis; format: cell-based
CWR22R [7] = assay: Upregulation of IFI27L2 mRNA expression in KDM5B-deficient human 22Rv1 cells harboring reintroduced KDM5B L685W at 20 uM incubated for 24 hrs by RT-qPCR analysis; format: functional, cell-based
CWR22R [8] = assay: Upregulation of HHLA3 mRNA expression in KDM5B-deficient human 22Rv1 cells harboring reintroduced KDM5B L685W at 20 uM incubated for 24 hrs by RT-qPCR analysis; format: functional, cell-based
[9] = biological target: T1, Protein cereblon/Lysine-specific demethylase 5B (Homo sapiens); assay: PROTAC activity at CRBN/KDM5B in human 22Rv1 cells assessed as increase in H3K4me3 level at 0 to 20 uM incubated for 24 hrs by Western blot analysis; format: cell-based; settings: dose 0-20 µM
[10] = biological target: T1, Protein cereblon/Lysine-specific demethylase 5B (Homo sapiens); assay: PROTAC activity at CRBN/KDM5B in human 22Rv1 cells assessed as reduction in KDM5B level by RT-qPCR analysis; format: cell-based
[11] = biological target: T1, Protein cereblon/Lysine-specific demethylase 5B (Homo sapiens); assay: Induction of KDM5B-CRBN protein protein interaction in human 22Rv1 cells at 20 uM incubated for 12 hrs in presence of MG-132 by Western blot analysis; format: cell-based
[12] = tested on: Protein cereblon/Lysine-specific demethylase 5B (Homo sapiens), Q96SW2+Q9UGL1 [L685W]; assay: PROTAC activity at CRBN/KDM5B L685W mutant in KDM5B-deficient human 22Rv1 cells harboring reintroduced KDM5B L685W assessed as induction of protein degradation at 20 uM incubated for 24 hrs by Western blot analysis; format: cell-based
CWR22R [13] = assay: Effect on KDM5B transcription in human 22Rv1 cells at 0 to 20 uM measured after 24 hrs by RT-qPCR analysis; format: functional, cell-based; settings: dose 0-20 µM
CWR22R [14] = assay: Downregulation of KDM5B-induced H3K9me3 level in KDM5B-deficient human 22Rv1 cells harboring reintroduced KDM5B L685W at 20 uM incubated for 24 hrs by Western blot analysis; format: functional, cell-based
[15] = biological target: Lysine-specific demethylase 5B (Homo sapiens) (UniProt Q9UGL1); assay: Inhibition of KDM5B in human 22Rv1 cells assessed as upregulation of IRF3 mRNA expression at 20 uM incubated for 24 hrs by RT-qPCR analysis; format: cell-based
[16] = biological target: T1, Protein cereblon/Lysine-specific demethylase 5B (Homo sapiens); assay: PROTAC activity at CRBN/KDM5B in human 22Rv1 cells assessed as induction of KDM5B degradation at 5 uM in presence of MG-132 measured after 24 hrs by Western blot analysis; format: cell-based
CWR22R [17] = assay: Cytotoxicity against human 22Rv1 cells assessed as reduction in cell proliferation at 0 to 20 uM measured after 24 to 48 hrs by MTS assay; format: toxicity, cell-based; settings: dose lower 0 µM, time lower 24 hrs, dose upper 20 µM, time upper 48 hrs
[18] = biological target: T1, Protein cereblon/Lysine-specific demethylase 5B (Homo sapiens); assay: PROTAC activity at CRBN/KDM5B in human 22Rv1 cells assessed as induction of KDM5B degradation at 5 uM in presence of CPI-455 measured after 24 hrs by Western blot analysis; format: cell-based
[19] = biological target: T1, Protein cereblon/Lysine-specific demethylase 5B (Homo sapiens); assay: PROTAC activity at CRBN/KDM5B in human 22Rv1 cells assessed as increase in H3K4me3 level by […] analysis; format: cell-based
[20] = biological target: Protein cereblon/Lysine-specific demethylase 5A (Homo sapiens) (UniProt P29375+Q96SW2); assay: Induction of KDM5A-CRBN (unknown origin) protein protein interaction assessed as ternary complex formation; format: protein assay
Sequence of Protein cereblon/Lysine-specific demethylase 5A (Homo sapiens) (P29375 whole entry, looked up): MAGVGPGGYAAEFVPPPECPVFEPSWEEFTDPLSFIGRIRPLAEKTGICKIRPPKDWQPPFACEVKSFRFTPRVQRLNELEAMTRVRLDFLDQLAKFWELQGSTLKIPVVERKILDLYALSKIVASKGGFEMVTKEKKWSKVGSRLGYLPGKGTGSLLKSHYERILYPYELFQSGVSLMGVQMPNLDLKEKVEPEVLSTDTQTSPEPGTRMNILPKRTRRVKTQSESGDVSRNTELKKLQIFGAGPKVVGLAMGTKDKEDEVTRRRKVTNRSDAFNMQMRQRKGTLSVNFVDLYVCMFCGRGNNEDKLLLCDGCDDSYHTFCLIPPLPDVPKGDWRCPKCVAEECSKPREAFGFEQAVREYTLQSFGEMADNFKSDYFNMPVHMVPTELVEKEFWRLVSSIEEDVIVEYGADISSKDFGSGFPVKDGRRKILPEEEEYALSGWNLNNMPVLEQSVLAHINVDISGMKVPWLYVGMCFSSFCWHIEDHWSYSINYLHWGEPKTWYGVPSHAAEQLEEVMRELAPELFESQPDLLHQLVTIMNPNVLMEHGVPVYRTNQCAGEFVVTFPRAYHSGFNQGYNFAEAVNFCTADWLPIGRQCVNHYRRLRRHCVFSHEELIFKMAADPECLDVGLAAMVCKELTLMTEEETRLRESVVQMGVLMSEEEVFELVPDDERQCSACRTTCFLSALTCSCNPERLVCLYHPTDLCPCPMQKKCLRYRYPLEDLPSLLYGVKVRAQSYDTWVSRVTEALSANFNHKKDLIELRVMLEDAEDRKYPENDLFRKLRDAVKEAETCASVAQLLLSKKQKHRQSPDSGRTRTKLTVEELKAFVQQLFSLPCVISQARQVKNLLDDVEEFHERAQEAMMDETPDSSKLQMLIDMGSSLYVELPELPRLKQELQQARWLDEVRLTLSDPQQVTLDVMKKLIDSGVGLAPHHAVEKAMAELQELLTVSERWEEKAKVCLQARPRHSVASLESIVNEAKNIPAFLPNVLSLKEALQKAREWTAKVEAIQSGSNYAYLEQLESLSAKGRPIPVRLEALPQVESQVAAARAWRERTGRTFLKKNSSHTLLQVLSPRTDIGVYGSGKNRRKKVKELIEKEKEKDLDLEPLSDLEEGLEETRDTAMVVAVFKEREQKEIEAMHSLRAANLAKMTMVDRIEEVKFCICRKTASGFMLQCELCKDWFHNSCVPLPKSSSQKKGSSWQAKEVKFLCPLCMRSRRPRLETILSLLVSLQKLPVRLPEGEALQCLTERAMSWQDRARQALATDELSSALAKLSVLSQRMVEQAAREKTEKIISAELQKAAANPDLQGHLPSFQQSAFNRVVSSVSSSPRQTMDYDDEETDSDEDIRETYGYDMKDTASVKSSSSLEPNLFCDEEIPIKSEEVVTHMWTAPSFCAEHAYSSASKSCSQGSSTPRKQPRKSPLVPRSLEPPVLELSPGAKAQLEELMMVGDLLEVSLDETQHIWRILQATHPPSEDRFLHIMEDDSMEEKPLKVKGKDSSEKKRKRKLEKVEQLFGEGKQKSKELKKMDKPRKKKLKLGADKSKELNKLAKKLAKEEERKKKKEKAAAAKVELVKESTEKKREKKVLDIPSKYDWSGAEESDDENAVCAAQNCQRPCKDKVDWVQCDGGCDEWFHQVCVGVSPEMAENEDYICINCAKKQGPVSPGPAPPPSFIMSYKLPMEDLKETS
Sequence of Protein cereblon/Lysine-specific demethylase 5A (Homo sapiens) (Q96SW2 whole entry, looked up): as the sequence (Q96SW2 whole entry, looked up) above

[21] = biological target: T1, Protein cereblon/Lysine-specific demethylase 5B (Homo sapiens); assay: PROTAC activity at CRBN/KDM5B in human 22Rv1 cells assessed as reduction in KDM5B level at 0 to 20 uM incubated for 24 hrs by Western blot analysis; format: cell-based; settings: dose 0-20 µM
[22] = biological target: Protein cereblon/Lysine-specific demethylase 5C (Homo sapiens) (UniProt P41229+Q96SW2); assay: Induction of KDM5C-CRBN (unknown origin) protein protein interaction assessed as ternary complex formation; format: protein assay
[23] = biological target: Lysine-specific demethylase 5B (Homo sapiens) (UniProt Q9UGL1); assay: Inhibition of KDM5B in human 22Rv1 cells assessed as upregulation of HHLA3 mRNA expression at 20 uM incubated for 24 hrs by RT-qPCR analysis; format: cell-based
[24] = biological target: T1, Protein cereblon/Lysine-specific demethylase 5B (Homo sapiens); assay: PROTAC activity at CRBN/KDM5B in human 22Rv1 cells assessed as induction of KDM5B degradation at 10 uM in presence of cycloheximide measured after 2 to 12 hrs by Western blot analysis; format: cell-based; settings: time 2-12 hrs
[25] = biological target: Lysine-specific demethylase 5B (Homo sapiens) (UniProt Q9UGL1); assay: Inhibition of KDM5B in human 22Rv1 cells assessed as upregulation of IFI27L2 mRNA expression at 20 uM incubated for 24 hrs by RT-qPCR analysis; format: cell-based
CWR22R [26] = assay: Upregulation of IRF3 mRNA expression in KDM5B-deficient human 22Rv1 cells harboring reintroduced KDM5B L685W at 20 uM incubated for 24 hrs by RT-qPCR analysis; format: functional, cell-based
[27] = biological target: Lysine-specific demethylase 5B (Homo sapiens) (UniProt Q9UGL1); assay: Induction of FLAG-tagged KDM5B degradation in HEK293T cells overexpressing KDM5B assessed as increase in ubiquitinated FLAG-KDM5B level by immunoprecipitation analysis; format: cell-based
[28] = biological target: Lysine-specific demethylase 5B (Homo sapiens) (UniProt Q9UGL1); assay: Inhibition of KDM5B (unknown origin) assessed as increase in H3K4me3 level

N#Cc1cnn2c(=O)cc(-c3ccc(OCC(=O)NCCOCCNC(=O)CNc4cccc5c4C(=O)N(C4CCC(=O)NC4=O)C5=O)cc3)[nH]c12 (centres undefined)
Activity [1]: 0%

N#Cc1cnn2c(=O)cc(-c3ccc(OCC(=O)NCCOCCNC(=O)COc4cccc5c4C(=O)N(C4CCC(=O)NC4=O)C5=O)cc3)[nH]c12 (centres undefined)
Activity [1]: 0%

N#Cc1cnn2c(=O)cc(-c3ccc(OCCNC(=O)CCOCCNc4cccc5c4C(=O)N(C4CCC(=O)NC4=O)C5=O)cc3)[nH]c12 (centres undefined)
Activity [1]: 5.27%

N#Cc1cnn2c(=O)cc(-c3ccc(OCCNC(=O)CCOCCOCCNc4cccc5c4C(=O)N(C4CCC(=O)NC4=O)C5=O)cc3)[nH]c12 (centres undefined)
Activity [1]: 0%

N#Cc1cnn2c(=O)cc(-c3ccc(OCCNC(=O)CCCNc4cccc5c4C(=O)N(C4CCC(=O)NC4=O)C5=O)cc3)[nH]c12 (centres undefined)
Activity [1]: 0%

CC(C)c1c(-c2ccccc2)[nH]c2c(C#N)cnn2c1=O
inhibition [2]: Active

N#Cc1cnn2c(=O)cc(-c3ccc(OCCNC(=O)CCOCCOCCOCCOCCNc4cccc5c4C(=O)N(C4CCC(=O)NC4=O)C5=O)cc3)[nH]c12 (centres undefined)
Activity [1]: 0%

N#Cc1cnn2c(=O)cc(-c3ccc(OCCNC(=O)CCOCCOc4cccc5c4C(=O)N(C4CCC(=O)NC4=O)C5=O)cc3)[nH]c12 (centres undefined)
Activity [1]: 6.31%

N#Cc1cnn2c(=O)cc(-c3ccc(OCC(=O)NCCOCCOc4cccc5c4C(=O)N(C4CCC(=O)NC4=O)C5=O)cc3)[nH]c12 (centres undefined)
Activity [3]: inactive
inhibition [4]: Active
Activity (CWR22R [5]): Active
inhibition [6]: Active
Activity (CWR22R [7]): Active
Activity (CWR22R [8]): Active
Activity [9]: Active
Activity [10]: Active
Activity [1]: 68.3%
Activity [11]: Active
Activity [12]: Active
Activity (CWR22R [13]): inactive
Activity (CWR22R [14]): Active
inhibition [15]: Active
Activity [16]: inactive
Activity (CWR22R [17]): Non-Toxic
Activity [18]: inactive
Activity [19]: Active
Activity [20]: inactive
Activity [21]: Active
inhibition [2]: Active
Activity [22]: inactive
inhibition [23]: Active
Activity [24]: Active
inhibition [25]: Active
Activity (CWR22R [26]): Active
Activity [27]: Active

N#Cc1cnn2c(=O)cc(-c3ccc(OCCNC(=O)CCCCCNc4cccc5c4C(=O)N(C4CCC(=O)NC4=O)C5=O)cc3)[nH]c12 (centres undefined)
Activity [1]: 10.8%

N#Cc1cnn2c(=O)cc(-c3ccc(OCCNC(=O)CCOCCOCCOCCNc4cccc5c4C(=O)N(C4CCC(=O)NC4=O)C5=O)cc3)[nH]c12 (centres undefined)
Activity [1]: 0%

CC(C)(C)OC(=O)COc1ccc(-c2cc(=O)n3ncc(C#N)c3[nH]2)cc1
inhibition [28]: Active

CC(C)(C)OC(=O)NCCOc1ccc(-c2cc(=O)n3ncc(C#N)c3[nH]2)cc1
inhibition [28]: Active
